Molecular target: T1, NUAK1 (ARK5) (Homo sapiens, UniProt O60285)
T1 construct: purchased Thermo Fisher Scientific (Life Technologies) SelectScreen
Test: SelectScreen Adapta
Type: biochemical
Method: The in vitro kinase selectivity of NU5455 was determined using the SelectScreen Broad Assay Panel (Thermo Fisher Scientific) involving activity and binding assays (Supplemental Table 1). […] Class IA PI3Ks were measured using the p85α subunit.
Kinase [ATP] % Assay Kinase [ATP] % Assay Kinase [ATP] % Assay Kinase [ATP] % Assay […]
SNF1LK2 Km app 26.6 Z MINK1 Km app 4.6 Z NUAK1 (ARK5) Km app 1.2 A AMPK (A2/B2/G2) n/a -2.6 L […]
SGK (SGK1) Km app 8.5 Z MAP4K2 (GCK) Km app 2.7 Z TLK2 n/a -0.3 L STK38 (NDR) n/a -5.9 L
MERTK (cMER) Km app 8.3 Z CDK2/cyclin A Km app 2.7 Z TGFBR1 (ALK5) n/a -0.4 L MATK (HYL) Km app -6.3 Z
FYN Km app 8.3 Z EPHA1 Km app 2.7 Z CLK3 Km app -0.5 Z ABL1 E255K Km app -6.6 Z
TEC n/a 8.1 L CDK2/cyclin E1 n/a 2.7 L MAP3K14 (NIK) n/a -0.5 L STK17A (DRAK1) n/a -6.6 L
KIT V654A n/a 8.1 L TESK2 n/a 2.7 L AKT3 (PKB gamma) Km app -0.5 Z JAK2 JH1 JH2 Km app -6.7 Z
ROS1 Km app 8.0 Z SPHK1 Km app 2.7 A MAP3K9 (MLK1) Km app -0.5 Z PRKACB (PRKAC beta) n/a -6.8 L
FGFR3 K650E Km app 7.9 Z AMPK A2/B1/G1 Km app 2.6 Z IKBKB (IKK beta) Km app -0.6 Z PDGFRA (PDGFR alpha) Km app -6.8 Z
RAF1 (cRAF) Y340D Y341D 100 7.9 Z DYRK3 Km app 2.6 Z CAMK2A (CaMKII alpha) Km app -0.6 Z NEK9 Km app -7.2 Z
PI4KA (PI4K alpha) 10 7.8 A CSNK1D (CK1 delta) Km app 2.6 Z PRKCB1 (PKC beta I) Km app -0.7 Z PDK1 Km app -7.3 Z
HIPK2 Km app 7.8 Z ACVR2A n/a 2.5 L TTK n/a -0.7 L RPS6KB1 (p70S6K) Km app -7.8 Z […]

T1 sequence (O60285 whole entry): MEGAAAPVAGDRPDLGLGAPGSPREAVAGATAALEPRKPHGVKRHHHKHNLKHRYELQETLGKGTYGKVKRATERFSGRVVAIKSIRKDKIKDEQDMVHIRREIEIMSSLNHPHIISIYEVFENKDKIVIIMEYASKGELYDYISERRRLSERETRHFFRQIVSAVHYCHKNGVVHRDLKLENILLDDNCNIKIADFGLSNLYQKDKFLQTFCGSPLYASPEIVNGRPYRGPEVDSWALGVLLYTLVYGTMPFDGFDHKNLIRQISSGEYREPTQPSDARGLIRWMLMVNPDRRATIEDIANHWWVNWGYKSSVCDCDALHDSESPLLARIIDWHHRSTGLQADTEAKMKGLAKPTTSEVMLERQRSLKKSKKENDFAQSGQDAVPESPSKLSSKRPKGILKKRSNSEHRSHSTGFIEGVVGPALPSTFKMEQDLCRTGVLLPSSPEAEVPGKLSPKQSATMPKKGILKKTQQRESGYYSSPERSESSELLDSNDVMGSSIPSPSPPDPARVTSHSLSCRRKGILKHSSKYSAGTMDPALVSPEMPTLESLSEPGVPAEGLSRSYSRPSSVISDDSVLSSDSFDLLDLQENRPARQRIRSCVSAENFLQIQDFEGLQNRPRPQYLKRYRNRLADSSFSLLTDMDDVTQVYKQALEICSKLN

CN(C(=O)CN1CCOCC1)c1ccc2sc3c(-c4cccc5c(=O)cc(N6CC7CCC(C6)O7)oc45)cccc3c2c1 [NU5455]
inhibition at 1 µM: 1.2%

— PMC6934184, “Selective DNA-PKcs inhibition extends the therapeutic index of localized radiotherapy and chemotherapy” (The Journal of Clinical Investigation, 2019)
